The values below come from patent US7141590B2, “Pharmaceutical uses and synthesis of nicotinanilide-N-oxides” (UCB SA, priority 2000, dated 2006).

Test [1] has as its target T1, IL-8 type β receptor (IL-8Rβ) (Homo sapiens, UniProt P25025).
T1 construct: purchased BioSignal, Montreal, Canada; host or cells: Sf9 cells
T1 sequence (P25025 1-360): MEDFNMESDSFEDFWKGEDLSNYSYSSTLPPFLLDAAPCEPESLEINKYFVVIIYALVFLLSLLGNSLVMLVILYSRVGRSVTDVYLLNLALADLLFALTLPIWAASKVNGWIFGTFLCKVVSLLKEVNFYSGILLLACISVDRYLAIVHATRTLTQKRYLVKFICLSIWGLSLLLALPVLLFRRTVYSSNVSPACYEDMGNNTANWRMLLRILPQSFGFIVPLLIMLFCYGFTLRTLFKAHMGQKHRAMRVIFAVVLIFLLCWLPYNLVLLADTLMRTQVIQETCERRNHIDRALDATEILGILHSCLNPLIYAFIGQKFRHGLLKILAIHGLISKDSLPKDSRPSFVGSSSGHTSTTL
As to the kind of experiment: [125I] IL-8 binding assay (WGA-SPA beads, IL-8Rβ membranes). The note with it: 20 uM compound; [125I] IL-8, IL-8Rβ membranes. How it is done: IL-8 (human recombinant) was obtained from NEN Life Science Products, Inc., Boston, Mass., with specific activity of 2200 Ci/mmol. Recombinant human IL-8 was obtained from R&D Systems, Minneapolis, Minn. IL-8 type β receptor membranes were prepared from […] co-expressed with Gαi3β1γ2 proteins by BioSignal™, Montreal, Canada. Wheat Germ Agglutinin Scintillation Proximity Assay Beads were obtained from Amersham Pharmacia Biotech, Piscataway, N.J. All assays were performed in a 96-well, solvent resistant, white PicoPlate obtained from Packard Instruments. […] The assay was initiated by the addition of WGA-SPA beads in 25 mM Hepes (pH 7.4) containing 2 mM CaCl2 and 1 mM MgCl2. After 4–6 hours of gentle agitation at room temperature, the plate was counted on the Packard TopCount liquid scintillation counter.

Test [2] has as its system polymorphonuclear neutrophils (PMNs). In words: GRO-α driven chemotaxis assay with PMNs (ChemoTx plate). The test is classed as cell-based. The note with it: 20 μM compound; 50 nM GRO-α, human PMNs. The method, then: Peripheral blood from healthy human volunteers was collected into heparin, diluted in an equal volume of PBS, layered over Ficoll-Paque Plus (Pharmacia Biotech, Uppsala, Sweden), and spun at 400×g for 30 min. The PMN rich fraction was removed and residual erythrocytes were lysed with hypotonic saline. The polymorphonuclear neutrophils (PMNs) were washed once with assay buffer (Dulbecco's PBS containing divalent cations and 0.1% endotoxin-free BSA), and resuspended at 1E7 cells/mL in the same buffer. PMNs were loaded with 5 μM calcein AM (Molecular Probes, Eugene, Oreg.), washed twice and resuspended in assay buffer.
Growth Regulatory Oncogene a (GRO-α) driven chemotaxis assays were performed according to the following protocol. […] Test compounds were dissolved in DMSO (100%) at 20 mM and diluted in assay buffer to the desired concentrations; final DMSO concentration was 0.2%. Neutrophil migration proceeded for 40 min at 37° C. in a humidified incubator with 5% CO2. After removing nonmigrated cells from the top of the plate, migrated cells were quantified by reading fluorescence on a Wallac Victor.
The ratio of the positive to negative controls represents the chemotactic index of the cells. The results from this assay are reported in Tables 3–5, under the column headings IL-8 and GRO-α, and under the sub-column headings ChTx (for chemotaxis).

Test [3] deals with T2, human chemokine CCR5 receptor (Homo sapiens, UniProt P51681).
T2 construct: host or cells: CHO-K1-p242-CCR5 cells
The note with it: CCR5 reference data; cited from earlier work.

T2 sequence (P51681 whole entry): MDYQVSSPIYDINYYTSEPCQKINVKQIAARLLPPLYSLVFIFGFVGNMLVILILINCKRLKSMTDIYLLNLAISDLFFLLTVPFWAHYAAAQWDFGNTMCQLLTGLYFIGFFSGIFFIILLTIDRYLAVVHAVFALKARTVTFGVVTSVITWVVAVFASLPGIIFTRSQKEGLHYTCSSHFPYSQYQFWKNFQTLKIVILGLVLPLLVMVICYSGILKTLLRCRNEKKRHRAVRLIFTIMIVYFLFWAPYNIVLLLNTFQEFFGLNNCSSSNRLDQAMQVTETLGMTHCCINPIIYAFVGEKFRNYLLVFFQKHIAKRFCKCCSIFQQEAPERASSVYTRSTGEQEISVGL

As for `O=C(NC(c1ccccc1)c1ccccc1)c1ccc(Cl)[n+]([O-])c1`, the “IL-8 Binding @ 20 uM, %” value in test [1] is on record as “* (“*” for % values of less than or equal to 40)”. The “GRO-α ChTx @ 20 μM, %” value in test [2] is reported as “** (“**” for % values greater than 40)”.
Take `O=C(Nc1ccccc1F)c1ccc(Cl)[n+]([O-])c1`: the “IL-8 Binding @ 20 uM, %” value in test [1] is “* (“*” for % values of less than or equal to 40)”. The “GRO-α ChTx @ 20 μM, %” value in test [2] is on record as “** (“**” for % values greater than 40)”.
On to `O=C(Nc1ccc(OC(F)(F)F)cc1)c1ccc(Cl)[n+]([O-])c1`, for which the “IL-8 Binding @ 20 uM, %” value in test [1] was “* (“*” for % values of less than or equal to 40)”. Moreover, the “GRO-α ChTx @ 20 μM, %” value in test [2] was “* (“*” for % values of less than or equal to 40)”.
For `O=C(Nc1ccc(OCc2ccccc2)cc1)c1ccc(Cl)[n+]([O-])c1`, the “IL-8 Binding @ 20 uM, %” value in test [1] is “* (“*” for % values of less than or equal to 40)”. Also, the “GRO-α ChTx @ 20 μM, %” value in test [2] is “** (“**” for % values greater than 40)”.
As to `O=C(Nc1ccc(I)c(Cl)c1)c1ccc(Cl)[n+]([O-])c1`, in test [1], the “IL-8 Binding @ 20 uM, %” value is listed as “* (“*” for % values of less than or equal to 40)”. The “GRO-α ChTx @ 20 μM, %” value in test [2] is “** (“**” for % values greater than 40)”.
`Cc1cc(NC(=O)c2ccc(Cl)[n+]([O-])c2)ccc1Br`: the “IL-8 Binding @ 20 uM, %” value in test [1] is “* (“*” for % values of less than or equal to 40)”. Also, in test [2], the “GRO-α ChTx @ 20 μM, %” value was “** (“**” for % values greater than 40)”.
For `O=C(Nc1cc(C(F)(F)F)cc(C(F)(F)F)c1)c1ccc(Cl)[n+]([O-])c1`, the “IL-8 Binding @ 20 uM, %” value in test [1] is “* (“*” for % values of less than or equal to 40)”. The “GRO-α ChTx @ 20 μM, %” value in test [2] is given as “* (“*” for % values of less than or equal to 40)”.
As for `O=C(Nc1cccc(OC(F)(F)F)c1)c1ccc(Cl)[n+]([O-])c1`, the “IL-8 Binding @ 20 uM, %” value in test [1] is recorded as “* (“*” for % values of less than or equal to 40)”. In test [2], the “GRO-α ChTx @ 20 μM, %” value was “* (“*” for % values of less than or equal to 40)”.
Turning to `Cc1cc(F)ccc1NC(=O)c1ccc(Cl)[n+]([O-])c1`, the “IL-8 Binding @ 20 uM, %” value in test [1] was “* (“*” for % values of less than or equal to 40)”. Moreover, in test [2], the “GRO-α ChTx @ 20 μM, %” value is recorded as “** (“**” for % values greater than 40)”.
In the same order, the values of `O=C(Nc1cccc(F)c1)c1ccc(Cl)[n+]([O-])c1` are “* (“*” for % values of less than or equal to 40)” and “** (“**” for % values greater than 40)”.
Consider `O=C(Nc1ccc(I)cc1)c1ccc(Cl)[n+]([O-])c1`, for which the “IL-8 Binding @ 20 uM, %” value in test [1] is on record as “* (“*” for % values of less than or equal to 40)”. The “GRO-α ChTx @ 20 μM, %” value in test [2] is reported as “** (“**” for % values greater than 40)”.
On to `CC(C)(C)c1ccc(NC(=O)c2ccc(Cl)[n+]([O-])c2)cc1`, for which the “IL-8 Binding @ 20 uM, %” value in test [1] is “* (“*” for % values of less than or equal to 40)”. In addition, the “GRO-α ChTx @ 20 μM, %” value in test [2] is on record as “** (“**” for % values greater than 40)”.
The like results for `CCOc1cccc(NC(=O)c2ccc(Cl)[n+]([O-])c2)c1` were, in that order, “* (“*” for % values of less than or equal to 40)” and “C*”.
With `NC(=O)c1cccc(NC(=O)c2ccc(Cl)[n+]([O-])c2)c1`, the “IL-8 Binding @ 20 uM, %” value in test [1] is reported as “* (“*” for % values of less than or equal to 40)”. Moreover, the “GRO-α ChTx @ 20 μM, %” value in test [2] is on record as “* (“*” for % values of less than or equal to 40)”.
On to `O=C(NCc1ccccc1)c1ccc(Cl)[n+]([O-])c1`, for which the “IL-8 Binding @ 20 uM, %” value in test [1] is reported as “* (“*” for % values of less than or equal to 40)”. Further, the “GRO-α ChTx @ 20 μM, %” value in test [2] is listed as “* (“*” for % values of less than or equal to 40)”.
Consider `O=C(NCc1ccc(F)cc1)c1ccc(Cl)[n+]([O-])c1`, for which the “IL-8 Binding @ 20 uM, %” value in test [1] is recorded as “* (“*” for % values of less than or equal to 40)”. The “GRO-α ChTx @ 20 μM, %” value in test [2] was “* (“*” for % values of less than or equal to 40)”.
`O=C(NC1CCCC1)c1ccc(Cl)[n+]([O-])c1`: the “IL-8 Binding @ 20 uM, %” value in test [1] is reported as “* (“*” for % values of less than or equal to 40)”. Further, the “GRO-α ChTx @ 20 μM, %” value in test [2] is reported as “* (“*” for % values of less than or equal to 40)”.
With `O=C(NCc1ccco1)c1ccc(Cl)[n+]([O-])c1`, the “IL-8 Binding @ 20 uM, %” value in test [1] is listed as “* (“*” for % values of less than or equal to 40)”. Moreover, the “GRO-α ChTx @ 20 μM, %” value in test [2] was “* (“*” for % values of less than or equal to 40)”.
For the molecule `O=C(Nc1ccc(F)cc1)c1ccc(Cl)[n+]([O-])c1` [Cl—, 6-Chloro-N-(4-fluoro-phenyl)-1-oxy-nicotinamide], in test [1], the “IL-8 Binding @ 20 uM, %” value is “**(1) (“**” for % values greater than 40)”. The “GRO-α ChTx @ 20 μM, %” value in test [2] was “** (“**” for % values greater than 40)”.
`CS(=O)(=O)c1ccc(C(=O)Nc2ccc(F)cc2)c[n+]1[O-]` [drawing 44]: in test [1], the “IL-8 Binding @ 20 uM, %” value is “** (“**” for % values greater than 40)”. In test [2], the “GRO-α ChTx @ 20 μM, %” value was “** (“**” for % values greater than 40)”.
For the molecule `O=C(Nc1ccc(F)cc1)c1ccc(S(=O)(=O)c2ccccc2)[n+]([O-])c1` [drawing 47], the “IL-8 Binding @ 20 uM, %” value in test [1] was “** (“**” for % values greater than 40)”. Moreover, in test [2], the “GRO-α ChTx @ 20 μM, %” value was “** (“**” for % values greater than 40)”.
Take `CCS(=O)(=O)c1ccc(C(=O)Nc2ccc(F)cc2)c[n+]1[O-]` [drawing 49]: the “IL-8 Binding @ 20 uM, %” value in test [1] is “** (“**” for % values greater than 40)”. In addition, the “GRO-α ChTx @ 20 μM, %” value in test [2] is listed as “** (“**” for % values greater than 40)”.
Turning to `CCCS(=O)(=O)c1ccc(C(=O)Nc2ccc(F)cc2)c[n+]1[O-]` [drawing 51], the “IL-8 Binding @ 20 uM, %” value in test [1] is “** (“**” for % values greater than 40)”. The “GRO-α ChTx @ 20 μM, %” value in test [2] is given as “** (“**” for % values greater than 40)”.
`O=C(Nc1ccc(F)cc1)c1ccc(S(=O)(=O)Cc2ccccc2)[n+]([O-])c1` [drawing 52]: in test [1], the “IL-8 Binding @ 20 uM, %” value is given as “** (“**” for % values greater than 40)”. Besides, the “GRO-α ChTx @ 20 μM, %” value in test [2] is listed as “** (“**” for % values greater than 40)”.
Take `O=C(Nc1ccc(F)cc1)c1ccc(S(=O)(=O)C2CCCC2)[n+]([O-])c1` [drawing 53]: in test [1], the “IL-8 Binding @ 20 uM, %” value is “** (“**” for % values greater than 40)”. The “GRO-α ChTx @ 20 μM, %” value in test [2] is recorded as “** (“**” for % values greater than 40)”.
For `O=C(Nc1ccc(F)c(F)c1)c1ccc(Cl)[n+]([O-])c1` [drawing 70], in test [1], the “IL-8 Binding @ 20 uM, %” value is “* (“*” for % values of less than or equal to 40)”. In addition, the “GRO-α ChTx @ 20 μM, %” value in test [2] was “** (“**” for % values greater than 40)”.
The IC50 is the concentration at which inhibition is half-maximal. As usually defined, the Ki is the dissociation constant of the complex between target and ligand, obtained from inhibition or displacement. Regarding MIP-1α: microphage inflammatory protein, in test [3], the IC50 is 0.039 nM, the Ki is 0.03 nM and the nH was 0.8.
As to “RANTES: regulated on activation of normal T-cell expressed and secreted”, in test [3], the IC50 is 0.012 nM, the Ki is 0.0093 nM and the nH is recorded as 0.9.

B1: MIP-1β: microphage inflammatory protein; standard reference agent used in CCR5 assay (protein, UniProt P13236 24-92, looked up)
C-C motif chemokine 4: APMGSDPPTACCFSYTARKLPRNFVVDYYETSSLCSQPAVVFQTKRSKQVCADPSESWVQEYVYDLELN
modifications: ends and bridges not checked
For B1, in test [3], the IC50 is 0.074 nM, the Ki was 0.057 nM and the nH is reported as 0.9.
